Reference: article PMC8344375 (Biochemistry, 2015)
Values joined by “and” are separate entries in the source; they are usually repeats but may differ in a detail not shown here. Equal values may be shown once. Read-outs that look alike come from different tables or passages of the source.

Columns and labels:
[1] = system: wt Tt H-NOX; settings: cited from earlier work
[2] = system: wt Cb H-NOX; settings: cited from earlier work
[3] = system: wt Cb H-NOX; format: binding
[4] = system: wt Tt H-NOX; format: binding
[5] = system: 6c NO-heme-His complex in wt Cb H-NOX; format: binding, Clostridium botulinum
[6] = system: sGC; settings: cited from earlier work

[C-]#[O+] [CO, Carbon monoxide]
koff (CO) [1]: 3.56^g s^−1 | kon (CO) [1]: 4.1e+06 g/M/s and 2.18e+06 g/M/s | kon (CO) [2]: 1.5 × 10^6d M^−1 s^−1 | koff (CO) [3]: 1.0 s⁻¹ | kon (CO) [3]: 1.5e+06 M⁻¹ s⁻¹ | Kd ([3]; read-out: KD (CO)): 670 nM | koff (CO) [4]: 0.5 s⁻¹ | kon (CO) [4]: 3.3e+06 M⁻¹ s⁻¹ | Kd ([4]; read-out: KD (CO)): 160 nM

O=O [O2, oxygen]
koff (O2) [1]: 1.2^f s^−1 and 1.2^e s^−1 | kon (O2) [1]: 2.5 × 10^7f M^−1 s^−1 and 1.36 × 10^7e M^−1 s^−1 | Kd ([1]; read-out: KD (O2)): 48 nM and 89.7 nM | Kd ([3]; read-out: KD (O2)): 53000 nM | koff (O2) [4]: 1.9 s⁻¹ | kon (O2) [4]: 4.3e+07 M⁻¹ s⁻¹ | Kd ([4]; read-out: KD (O2)): 44 nM

nitric oxide [NO]
koff (NO) [1]: 0.00056 s⁻¹ | koff (NO) [2]: 3 × 10^−6c s^−1 | kon (NO) [2]: ~ 10^8c M^−1 s^−1 | NO dissociation rate, fast phase [3]: 0.011 s⁻¹ | koff (NO) [3]: 0.012 s⁻¹ | koff of 5c NO-heme complex [3]: 1.1 × 10^−3a s^−1 | kon (NO) [3]: 1.5e+08 M⁻¹ s⁻¹ | Kd ([3]; read-out: KD (NO)): 0.08 nM | k2 (quaternary complex to 5c NO-heme) [5]: ~ 790 s^−1 | Kd ([5]; read-out: KD (reaction I, NO binding to 6c NO-heme-His)): ~570 µM | Kd ([5]; read-out: KD of reaction I): 1100 µM | koff (NO) [4]: 0.0034 s⁻¹ | kon (NO) [4]: 1.5e+08 M⁻¹ s⁻¹ | Kd ([4]; read-out: KD (NO)): 0.023 nM | koff for 5c NO-heme [6]: 0.0006 s⁻¹ | koff(NO) of 6c NO-sGC complex [6]: 27 s⁻¹ | Kd ([6]; read-out: KD(NO)(6c)): 54 nM
